Experimental data taken from patent US8921107B2, “Method for differentiating human neural progenitor cells into dopaminergic neurons, and medium for differentiation thereof” (College of Medicine Pochon Cha University Industry-Academic …, priority 2010, dated 2014).
“Also recorded” adds a separate entry of the source.

Key:
[1] = tested on: TH-expressing cells (dopaminergic neurons) differentiated from hNPCs; assay: Neuroprotective effect: differentiation induced in the presence of MPP (FIG. 6); assay type: cell-based, human
From the text: It is known that 1-methyl-4-phenylpyridium (MPP) induces cytotoxicity on dopaminergic neurons. Therefore, we evaluated functions of fusaric acid during the differentiation, through inducing differentiation in the presence of MPP (FIG. 6).

[2] = tested on: human neural progenitor cells (hNPCs); assay: Differentiation of hNPCs in NB medium with or without 100 μM fusaric acid; TH and Tuj1 expression, immunocytochemistry and RT-PCR (FIGS. 2, 3); assay type: cell-based; conditions: 100 μM fusaric acid added to NB medium with 2% B-27 minus-AO, 10 μM forskolin, 1 mM db-cAMP, versus without
Protocol: Total cellular RNAs were extracted from the hNPC, using Trizol and chloroform. cDNAs were synthesized from 500 ng of the total RNAs, using RNA Superscript II RTase, Oligo-d(T) primers, DTT and dNTPs, according to the manufacturer's protocol. The PCR was performed in a final volume of 20 μl containing 1 μl of cDNA and 1 μl of 10 pM primers, using a SYBR-Green mixture. The expressions of TH, DAT, GFAP, Nurr1, Tuj1, and Lmx1a were analyzed, using RPL22 as an internal control. The quantitative real-time PCR was performed using the LightCycler System. The amplification was monitored and analyzed through measuring the binding of the fluorescent dye SYBR Green to double-stranded DNA. The target DNAs were amplified by performing total 40 cycles, under the conditions at 95° C. for 10 seconds, at 60° C. for 10 seconds, at 72° C. for 20 seconds. Final extension was performed at 72° C. for 10 minutes. Results were expressed relative to the gene RPL-22 by comparative Ct method. The primers used in the PCR are described in Table 1. […]
hNPCs were proliferated in a DMEM/F12 (1:1) Glutamax medium, and then differentiated to neurons in a Neurobasal (NB) medium containing 2% of B-27 minus-AO supplement (GIBCO), 10 μM of forskolin, and 1 mM of db-cAMP, along with or without 100 μM of fusaric acid. After induction of the differentiation, the expression levels of TH and Tuj1 were measured (FIG. 2).

[3] = tested on: human neural progenitor cells (hNPCs); assay: Substitution potential for SHH and FGF8 as differentiation-inducing agents; TH expression (FIG. 4); assay type: cell-based
Protocol: In order to evaluate substitution potential for the expensive SHH and FGF8 that are of limited use as a differentiation-inducing agent, hNPCs were proliferated in a DMEM/F12 (1:1) Glutamax medium. After induction of the differentiation in a Neurobasal (NB) medium (Invitrogen) using 2% of B-27, 200 ng/ml of SHH, 25 ng/ml of FGF8, 10 μM of forskolin, 100 μM of fusaric acid, and 100 μM of db-cAMP, the expression levels of TH were measured (FIG. 4).

[4] = tested on: human neural progenitor cells (hNPCs); assay: Differentiation of hNPCs under hypoxia or normoxia; TH expression (FIG. 5); assay type: cell-based; conditions: NB medium with 2% B-27, 10 μM forskolin, 100 μM fusaric acid, 100 μM db-cAMP; 3% versus 21% oxygen partial pressure
Protocol: hNPCs were proliferated in a DMEM/F12 (1:1) Glutamax medium, and then differentiated in a Neurobasal (NB) medium (Invitrogen) containing 2% of B-27, 10 μM of forskolin, 100 μM of fusaric acid, and 100 μM of db-cAMP, under the hypoxia condition (3% of oxygen partial pressure) or the normoxia condition (21% of oxygen partial pressure). After induction of the differentiation, the expression levels of TH were measured (FIG. 5).

[5] = tested on: human neural progenitor cells (hNPCs); assay: Differentiation of hNPCs into dopaminergic neurons in media with various additives; TH and Tuj1 counted with DAPI staining (FIG. 1); assay type: cell-based
Protocol: For dopaminergic differentiation, hNPCs were plated onto a culture dish pre-coated with 15 μg/ml of poly-L-ornithine and 4 μg/ml of fibronectin at a density of 30,000 cells/cm^2; and after 2 or 3 days the cells were cultured in a NB medium comprising differentiation-inducing agents such as 2% of B27 minus-AO supplement (GIBCO), 10 μM of forskolin, 1 mM of db-cAMP and […] of fusaric acid, at 37° C. for 7 days, unless otherwise described.
hNPCs were washed with PBS three times and then fixed with 4% paraformaldehyde in PBS for 10 minutes. The cells were washed with PBS three times and then blocked by reacting with 3% Normal goat serum, 0.2% Triton X-100 and 1% BSA in PBS at room temperature for 1 hour. […]
hNPCs were differentiated into dopaminergic neurons in media obtained by adding interleukin 1 beta, db-cAMP, and fusaric acid (Fus), in various concentrations and combinations, to a Neurobasal medium [differentiation medium (DM) control]. TH (a dopaminergic neuron marker) and Tuj1 (a neural marker) were measured through the DAPI staining (FIG. 1).

[6] = differentiation in medium containing fusaric acid, in the presence of MPP

## CCCCc1ccc(C(=O)O)nc1 [fusaric acid, 5-butylpicolinic acid]
[1]; conclusion from FIG. 6, MPP treatment
  neuroprotective activity: has neuroprotective activity
[1]; [6]
  expression of Tuj1 under MPP treatment: relatively more expressed
  survival of TH-expressing cells under MPP treatment: more TH-expressing cells survived
[2]
  expression of TH (dopaminergic neuron marker): remarkably high expressed
  expression of Tuj1 (neuronal marker): also increased
[3]; 100 μM fusaric acid added in addition to 200 ng/ml SHH and 25 ng/ml FGF8
  differentiation into dopaminergic neurons (TH expression): more increased
[3]; 100 μM fusaric acid instead of SHH and FGF8, NB medium, 2% B-27, 10 μM forskolin, 100 μM db-cAMP
  differentiation into dopaminergic neurons (TH expression): higher differentiation potential into dopaminergic neurons; also recorded: differentiated most effectively into dopaminergic neurons
[4]
  differentiation into dopaminergic neurons (TH expression), hypoxia versus normoxia: differentiated more efficiently into dopaminergic neurons in hypoxia than in normoxia
[5]; culture medium containing db-cAMP and fusaric acid, compared with other combinations (interleukin 1 beta, db-cAMP, fusaric acid) in Neurobasal medium
  expression levels of TH and Tuj1 (differentiation potential): highest expression levels of TH and Tuj1
[5]; db-cAMP and fusaric acid each at 100 μM
  differentiation potential by concentration: the highest differentiation potential was obtained
